Values after ≈ are worked out from the molar mass of the structure shown.

Series [1] is described as follows: Half life in rat liver microsomes. In kind it is ADME, Microsome. For orientation: Microsomes from liver hold many membrane-bound enzymes, among them those of drug oxidation.
A short description of series [2]: Solubility of the compound after 24 hrs at pH 7.2. In kind it is physicochemical. The following applies: buffer.
Series [3] can be described thus: Half life in human liver microsomes. The class given is ADME, Microsome.
Series [4] can be described thus: Total clearance in rat at 2 mg/kg, iv. In kind it is ADME, organism-based. Also noted: dose 2 mg/kg, route intravenous. The settings on record: in vivo.
The nature of series [5]: Volume of distribution at steady state in rat at 2 mg/kg, iv. Also noted: dose 2 mg/kg, route intravenous. The following applies: in vivo, read-out: Vdss. The class given is ADME, organism-based.
Series [6] can be described thus: Half life in rat at 2 mg/kg, iv. The class given is ADME, organism-based. Also noted: dose 2 mg/kg, route intravenous. The settings on record: in vivo.
Series [7] is described as follows: Drug uptake in rat liver at 5 mg/kg, po after 6 hrs. The class given is ADME, organism-based. Also noted: dose 5 mg/kg, route oral. The settings on record: read-out: Drug uptake.
Series [8] can be described thus: Plasma concentration in rat at 5 mg/kg, po after 6 hrs. The class given is ADME, organism-based. Also noted: dose 5 mg/kg, route oral.
Series [9] in a line: AUC (0 to infinity) in rat at 5 mg/kg, po. The class given is ADME, organism-based. Also noted: time infinity, dose 5 mg/kg, route oral. The settings on record: plasma.
A short description of series [10]: Oral bioavailability in rat at 5 mg/kg. In kind it is ADME, organism-based. The following applies: in vivo.
Series [11] is described as follows: Cmax in rat at 5 mg/kg, po. In kind it is ADME, organism-based. The following applies: in vivo. Also noted: dose 5 mg/kg, route oral.
Series [12] is described as follows: Ratio of drug level in rat liver to plasma at 5 mg/kg, po after 6 hrs. The class given is ADME, organism-based. Also noted: dose 5 mg/kg, route oral.

Regarding `C=C[C@@H]1C[C@]1(NC(=O)[C@@H]1C[C@@](OC)(c2ccc(-c3cscn3)cc2)CN1C(=O)[C@@H](NC(=O)OC1CCCC1)C(C)(C)C)C(=O)NS(=O)(=O)C1CC1`, the half-life (commonly the time needed for the level to fall by half in the phase considered) in series [1] is 3.67 h; in series [3], 0.9 h. The solubility (as a rule, the dissolved amount per volume that the medium holds) at 24 h in series [2] was 540 µg/mL (≈ 728 µM).
Turning to `C=C[C@@H]1C[C@]1(NC(=O)[C@@H]1C[C@@](OC)(c2ccc(-c3ccccc3)nc2)CN1C(=O)[C@@H](NC(=O)OC1CCCC1)C(C)(C)C)C(=O)NS(=O)(=O)C1CC1`, the half-life came to 2 h in [1] and 1.45 h in [3]. For the same compound, the concentration in solution in series [2] (solubility at 24 h) was 600 µg/mL (≈ 815 µM).
Turning to `C=C[C@@H]1C[C@]1(NC(=O)[C@@H]1C[C@@](OC)(c2ccc(-c3nccs3)nc2)CN1C(=O)[C@@H](NC(=O)OC1CCCC1)C(C)(C)C)C(=O)NS(=O)(=O)C1CC1`, the solubility at 24 h in series [2] is more than 920 µg/mL. In addition, the half-life in [3] came to 2.28 h.
With `C=C[C@@H]1C[C@]1(NC(=O)[C@@H]1C[C@@](OC)(c2ccc(-c3cc(C)ccc3OC)nc2)CN1C(=O)[C@@H](NC(=O)OC1CCCC1)C(C)(C)C)C(=O)NS(=O)(=O)C1CC1`, the results for the half-life in [1] and in series [3] were 1.42 h and 1.4 h, respectively. Moreover, the solubility at 24 h in series [2] stood at 310 µg/mL (≈ 397 µM).
As for `C=C[C@@H]1C[C@]1(NC(=O)[C@@H]1C[C@@](OC)(c2ccc(-c3ccccc3)cc2)CN1C(=O)[C@@H](NC(=O)OC1CCCC1)C(C)(C)C)C(=O)NS(=O)(=O)C1CC1`, the clearance (commonly the volume of plasma or blood freed of the substance per unit of time) in series [4] was determined as 28 mL/min/kg. Moreover, in series [5], the Vd turned out to be 3.04 L/kg. The half-life in series [6] was 2.94 h; in series [1], 1.98 h; in series [3], 1.18 h. The concentration at 6 h came out at 2300 nM in series [7] and 50 nM in series [8]. Besides, the total exposure AUC(0-inf) (usually the area under the concentration-time curve extrapolated to infinity) in series [9] was 1.32 µM·h. The bioavailability (usually dose-corrected exposure relative to a reference, in per cent) in series [10] amounted to 33%. Moreover, the concentration in solution in series [2] (solubility at 24 h) was 43 µg/mL (≈ 58.5 µM). The concentration in [11] peaked (Cmax) at 320 nM. In addition, the concentration ratio (Kp) (as a rule, the ratio of the level in a tissue or fluid to that in plasma or blood) at 6 h in [12] was found to be 45.
As for `C=C[C@@H]1C[C@]1(NC(=O)[C@@H]1C[C@@](OC)(c2ccc(-c3ccccc3OC)cc2)CN1C(=O)[C@@H](NC(=O)OC1CCCC1)C(C)(C)C)C(=O)NS(=O)(=O)C1CC1`, the concentration in solution in series [2] (solubility at 24 h) came to 36 µg/mL (≈ 47.1 µM). Further, in series [3], the half-life worked out at 0.717 h.
In turn, `C=C[C@@H]1C[C@]1(NC(=O)[C@@H]1C[C@@](OC)(c2ccc(-c3cccc(OC)c3)cc2)CN1C(=O)[C@@H](NC(=O)OC1CCCC1)C(C)(C)C)C(=O)NS(=O)(=O)C1CC1` returned a solubility at 24 h in series [2] of 19 µg/mL (≈ 24.8 µM). The half-life in series [3] was determined as 1.12 h.
As for `C=C[C@@H]1C[C@]1(NC(=O)[C@@H]1C[C@@](OC)(c2ccc(-c3ccc(OC)cc3)cc2)CN1C(=O)[C@@H](NC(=O)OC1CCCC1)C(C)(C)C)C(=O)NS(=O)(=O)C1CC1`, the half-life is 1.4 h in [1] and 0.85 h in series [3]. Also, the solubility at 24 h in [2] was found to be 17 µg/mL (≈ 22.2 µM).
As for `C=C[C@@H]1C[C@]1(NC(=O)[C@@H]1C[C@@](OC)(c2ccc(-c3cccnc3)cc2)CN1C(=O)[C@@H](NC(=O)OC1CCCC1)C(C)(C)C)C(=O)NS(=O)(=O)C1CC1`, the half-life in series [1] came to 2.17 h; in series [3], 0.883 h. This compound yielded a solubility at 24 h in [2] of 940 µg/mL (≈ 1280 µM).
`C=C[C@@H]1C[C@]1(NC(=O)[C@@H]1C[C@@](OC)(c2ccc(-c3ccncc3)cc2)CN1C(=O)[C@@H](NC(=O)OC1CCCC1)C(C)(C)C)C(=O)NS(=O)(=O)C1CC1`: the results for the half-life in series [1] and in [3] were 1.83 h and 1.32 h, respectively. The compound also displayed a solubility at 24 h in series [2] of more than 790 µg/mL.
The compound `C=C[C@@H]1C[C@]1(NC(=O)[C@@H]1C[C@@](OC)(c2ccc(-c3ccc(C)cn3)cc2)CN1C(=O)[C@@H](NC(=O)OC1CCCC1)C(C)(C)C)C(=O)NS(=O)(=O)C1CC1` displayed a half-life in series [3] of 0.917 h.
With `C=C[C@@H]1C[C@]1(NC(=O)[C@@H]1C[C@@](OC)(c2ccc(-c3cnn(C)c3)cc2)CN1C(=O)[C@@H](NC(=O)OC1CCCC1)C(C)(C)C)C(=O)NS(=O)(=O)C1CC1`, the results for the half-life in series [1] and in series [3] were 2 h and 1.37 h, respectively. Further, the concentration in solution in series [2] (solubility at 24 h) was 540 µg/mL (≈ 731 µM).
The matching figures for `C=C[C@@H]1C[C@]1(NC(=O)[C@@H]1C[C@@](OC)(c2ccc(-c3nccs3)cc2)CN1C(=O)[C@@H](NC(=O)OC1CCCC1)C(C)(C)C)C(=O)NS(=O)(=O)C1CC1`: 1.1 h, 1.1 h and 452 µg/mL (≈ 609 µM).

The values above are taken from ChEMBL document CHEMBL2401691, “Synthesis and optimization of a novel series of HCV NS3 protease inhibitors: 4-arylproline analogs” (Bioorg Med Chem Lett, 2013).
